Two molecules from US20150132339A1, “ADJUVANTED FORMULATIONS OF STR[…]” (NOVARTIS AG, priority 2012, published 2015) can be followed below.

Common to all, as to type: physicochemical
A short description of data set [1]: Adsorption of compound K2 to aluminium hydroxide adjuvant (Al—H). To be noted: Al—H 2 mg/ml. On the procedure:
(§1) To determine whether the K2 remains adsorbed to Al—H, compositions were prepared as above.

Data set [2] is described as follows: Degradation after formulation. To be noted: RrgB321 / K2 / Al—H formulation. The protocol:
(§2) The combination of RrgB321 used in this study corresponds to a fusion between RrgB sequences from (3) Taiwan-23F (2) Finland 6B-12 (1) TIGR4, and thus comprises pili of clades III, II and I. Details of RrgB321 are provided in references 235 and 236. RrgB321 was expressed with a His tag. The final RrgB321 vaccine composition contains antigen (0.4 mg/ml), compound K2 (2 mg/ml), Al—H (2 mg/ml), NaCl (9 mg/ml), histidine buffer (10 mM, pH 6.5), formulation volume: 0.05 ml (in water).
as §1

A short description of data set [3]: Adsorption of RrgB321 to Al—H (SDS-PAGE). The protocol: as §2, §1

`Cc1cc(OCCOCCOCCP(=O)(O)O)ccc1CCc1cnc2c(N)nc3cc(CCC(=O)O)ccc3c2c1` [compound K2, 3-(5-amino-2-(2-methyl-4-(2-(2-(2-phosphonoethoxy)ethoxy)ethoxy)phenethyl)benzo[f]-[1,7]naphthyridin-8-yl)propanoic acid]: in data set [1] (at all strengths), the “compound K2 adsorbed to the Al—H” value is greater than 95%. For the same molecule, the “K2 remains adsorbed to Al—H” value in data set [1] (HPLC, RrgB321 composition) is “at least 97%”. The “degradation patterns after formulation” value in data set [2] is “Neither antigen nor K2 showed detectable degradation patterns”.
Turning to “RrgB321: fusion between RrgB sequences from Taiwan-23F, Finland 6B-12 and TIGR4 (clades III, II, I), e.g. SEQ ID NO: 250, His tag”, the “RrgB321 adsorption to Al—H” value in data set [3] (in the absence of K2) is listed as greater than 95%; in data set [3] (in the presence of K2), “approximately 50%”. Further, in data set [2], the “degradation patterns after formulation” value is given as “Neither antigen nor K2 showed detectable degradation patterns”.
